Test results published in article PMC9653409, “Generative deep learning enables the discovery of a potent and selective RIPK1 inhibitor” (Nature Communications, 2022).
Where “and” joins values, the source holds several entries; their conditions need not be identical. Equal values may be shown once. Read-outs that look alike come from different tables or passages of the source.

Key:
pRIPK1, pRIPK3, pMLKL = assay: TNFα-induced SIRS mouse model: liver western blot; assay type: in vivo, C57BL/6 female mice; conditions: 40 mg/kg i.p.
Experimental: The liver in the SIRS model and the colon in the IBD model were harvested, homogenated and sonicated in RIPA lysis buffer.
The cell proteins or tissue proteins were separated in a polyacrylamide gel and transferred to a methanol-activated polyvinylidene fluoride membrane. The membrane was blocked for 2 h in Tris-buffered saline plus Tween-20 containing 5% milk and then immunoblotted sequentially with primary and secondary antibodies. Detection was performed with an ECL chemiluminescence kit (Abbkine). The antibodies used were human RIPK1 antibody (R&D, 334640, 1:1000), mouse RIPK1 antibody (Affinity, DF2642, 1:1000), human phospho-RIP (Ser166) rabbit mAb (Cell Signaling Technologies, 65746, 1:1000), mouse phospho-RIP (Ser321) rabbit mAb (Cell Signaling Technologies, 38662, 1:1000), human RIPK3 (B-2) antibody (Santa Cruz, sc-374639, 1:250), mouse RIPK3 antibody (Abcam, ab62344, 1:1000), human anti-RIP3 (phospho S227) antibody (Abcam, ab209384, 1:2000), mouse anti-RIP3 (phospho T231 + S232) antibody (Abcam, ab205421, 1:500), anti-MLKL (58–70) antibody (Sigma, M6697, 1:250), human anti-MLKL (phospho S358) antibody (Abcam, ab187091, 1:1000), mouse anti-MLKL (phospho S345) antibody (Abcam, ab196436, 1:1000), and β-actin (Proteintech, 66009-1-Ig, 1:1000).

TNFα-induced SIRS = TNFα-induced SIRS mouse model: body temperature loss; assay type: in vivo, C57BL/6 female mice; conditions: for ΔTemperature Average: group average
Experimental: The body temperatures of the mice were continuously monitored until 6 h after TNFα administration. At 6 h after TNFα injection, four mice in each group were killed at random, and the serums, heart, liver, spleen, lung, and kidney tissues were collected for analysis.

RIPK1 = target: T1, RIPK1 (Homo sapiens, UniProt Q13546); assay: RIPK1 kinase assay, 33P-labeled ATP assay at Eurofins; assay type: biochemical
T1 sequence (Q13546 1-671): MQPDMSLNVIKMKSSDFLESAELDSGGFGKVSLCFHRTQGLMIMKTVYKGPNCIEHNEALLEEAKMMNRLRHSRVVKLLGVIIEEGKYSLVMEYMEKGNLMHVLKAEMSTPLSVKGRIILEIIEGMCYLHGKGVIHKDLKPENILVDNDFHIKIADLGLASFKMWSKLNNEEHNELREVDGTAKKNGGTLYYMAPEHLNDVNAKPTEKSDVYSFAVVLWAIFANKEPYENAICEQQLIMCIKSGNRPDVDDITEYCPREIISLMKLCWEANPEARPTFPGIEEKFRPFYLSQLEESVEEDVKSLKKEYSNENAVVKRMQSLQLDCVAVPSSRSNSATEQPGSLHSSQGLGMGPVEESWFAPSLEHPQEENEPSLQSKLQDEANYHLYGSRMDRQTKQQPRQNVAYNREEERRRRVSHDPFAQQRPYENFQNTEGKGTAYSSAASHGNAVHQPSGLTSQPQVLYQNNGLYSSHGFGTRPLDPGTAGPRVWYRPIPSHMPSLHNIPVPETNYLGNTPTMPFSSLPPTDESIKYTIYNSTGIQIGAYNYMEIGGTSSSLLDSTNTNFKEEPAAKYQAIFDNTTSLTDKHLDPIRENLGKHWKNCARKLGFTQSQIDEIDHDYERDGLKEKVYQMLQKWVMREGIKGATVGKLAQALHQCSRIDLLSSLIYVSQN
Experimental: In vitro kinase activity assays were conducted through the Kinase Profiling Services provided by Eurofins (Eurofins, France). The protocol for the RIPK1 assay is briefly described as follows (Protocols for other kinases are very similar and can be found in http://www.eurofins.com/pharmadiscovery). RIPK1 kinase was incubated with the test compound in assay buffer containing 8 mM MOPS (pH 7.0), 0.2 mM EDTA, 250 μM […], 10 mM magnesium acetate, and 10 μM [γ-33P]-ATP for 15 min at room temperature. The reaction was initiated by the addition of the Mg/ATP mixture. After incubation for 40 min at room temperature, and the reaction was stopped by the addition of 3% phosphoric acid. A 10 μL portion of the reaction mixture was then spotted onto a P30 filter mat and washed four times for 4 min in 0.425% phosphoric acid and once in methanol prior to drying and scintillation counting.

DSS-induced IBD = DSS-induced IBD mouse model: survival; assay type: in vivo, C57BL/6 female mice; set-up: key to 1 means death, 0 means survival: 1 means death; 0 means survival
Experimental: DSS (3% w/v) was administered in drinking water ad libitum for 7 d (from day 0 to day 7). DSS solution was replaced three times on day 2, day 4, and day 6. […] Three mice in each group were killed at random on day 7, and distal colon tissues were collected for analysis. The mice weight and survival rate were recorded daily.

HT29 cells = assay: Dual staining with CytoCalcein Violet 450 and 7-AAD after TSZ; assay type: cell-based; conditions: for Dead cell ratio (%): TSZ 24 h, replicates 1-4
Experimental: The assay of dual staining with CytoCalcein Violet 450 and 7-AAD was performed in a 24-well cell culture plate. Cells were plated in each well and cultured at 37 °C overnight. […] Then use CytoCalcein Violet 450 and 7-AAD to double stain the HT29 cells and observe under the microscope. All images were acquired with an Eclipse Ci-L microscope (Nikon, Japan). The dead cells were measured with Image J software, and the data was analyzed with GraphPad software. The experiment was repeated three times.

[1] = 0 h after mTNFα, individual mice

In the case of `CC(C)C(=O)Nc1nc2cc(-c3ccc4c(c3)c(C(=O)NC(C)c3ccccc3)cn4C)ccn2n1` (stereo not drawn) [RI-962], the “level of pRIPK1 in liver (western blot)” value (pRIPK1, pRIPK3, pMLKL) is reported as “substantially reduced the level of phosphorated RIPK1 (pRIPK1)”, the “ΔTemperature Average” value (TNFα-induced SIRS; 0 h after mTNFα) is reported as 0 °C and the Temperature (TNFα-induced SIRS; [1]) is reported as 36.3 °C (4×) and 36.5 °C (3×) and 36.2 °C (5×) and 36.6 °C (2×). For the same compound, the ΔTemperature (TNFα-induced SIRS; [1]) was 0 °C, the TNFα-induced temperature loss (TNFα-induced SIRS; 40 mg/kg i.p.) was “remarkably reduced” and the “ΔTemperature Average” value (TNFα-induced SIRS; 1 h after mTNFα) was -0.06429 °C. The Temperature (TNFα-induced SIRS; 1 h after mTNFα, individual mice) was 36.3 °C (5×) and 36.2 °C (5×) and 36.1 °C and 36.5 °C (2×) and 36.4 °C, the “ΔTemperature Average” value (TNFα-induced SIRS; 2 h after mTNFα) was 0.05 °C and the Temperature (TNFα-induced SIRS; 2 h after mTNFα, individual mice) was 36.3 °C (7×) and 36.4 °C and 36.5 °C (5×) and 36.6 °C. For the same compound, the “ΔTemperature Average” value (TNFα-induced SIRS; 3 h after mTNFα) was 0.01429 °C, the Temperature (TNFα-induced SIRS; 3 h after mTNFα, individual mice) was 36.3 °C (6×) and 36.4 °C (4×) and 36.5 °C (3×) and 36.2 °C and the “ΔTemperature Average” value (TNFα-induced SIRS; 4 h after mTNFα) was 0.007143 °C. For the same compound, the Temperature (TNFα-induced SIRS; 4 h after mTNFα, individual mice) was 36.2 °C (2×) and 36.5 °C (4×) and 36.4 °C (2×) and 36.3 °C (6×), the “ΔTemperature Average” value (TNFα-induced SIRS; 5 h after mTNFα) was -0.02143 °C and the Temperature (TNFα-induced SIRS; 5 h after mTNFα, individual mice) was 36.3 °C (7×) and 36.4 °C (3×) and 36.1 °C and 36.5 °C (2×) and 36.2 °C. The “ΔTemperature Average” value (TNFα-induced SIRS; 6 h after mTNFα) was -0.1571 °C, the Temperature (TNFα-induced SIRS; 6 h after mTNFα, individual mice) was 36.3 °C (8×) and 36.4 °C and 35.9 °C (3×) and 36 °C and 36.2 °C and the activity at 0.001 µM (RIPK1; 1 nM) was 82.5%. It also gave an activity at 0.003 µM (RIPK1; 3 nM) of 95%, an activity at 0.01 µM (RIPK1; 10 nM) of 80.5% and an activity at 0.03 µM (RIPK1; 30 nM) of 60.5%. The activity at 0.1 µM (RIPK1; 100 nM) was 17.5%, the activity at 0.3 µM (RIPK1; 300 nM) was -2% and the activity at 1 µM (RIPK1; 1000 nM) was 11.5%. It also gave an activity at 3 µM (RIPK1; 3000 nM) of 3.5%, an activity at 10 µM (RIPK1; 10 µM, read-out: Activity (%), RIPK1(h)) of 0% and an activity at 10 µM (RIPK1; 10000 nM, read-out: Activity (%) Average) of -3.5%. The IC50 (RIPK1; 33P-labeled ATP assay, read-out: IC50) was 35 nM, the survival rate (DSS-induced IBD; 40 mg/kg i.p. once a day for 10 d, 3% DSS 7 d) was 100% and the “1 means death, 0 means survival” value (DSS-induced IBD; Figure 9f, individual mice, time 14) was 0. For the same compound, the “Dead cell ratio (%)” value (HT29 cells; 3 nM) was 15.55% and 9.32% and 10.06% and 11.13%, the “Dead cell ratio (%)” value (HT29 cells; 10 nM, listed as RI-963) was 9.02% and 6.38% and 5.61% and 6.01% and the “TSZ-induced necroptosis, dual staining” value (HT29 cells; HT29, 24 h) was “inhibited TSZ-induced necroptosis and improved cell survival in a concentration-dependent manner”.
